Where a chain is given by its changes, count along the chain named.
Assays:
HepG2 = experiment: STAT-responsive luciferase reporter in HepG2 cells without transfected receptor; assay type: cell-based, human; settings: HepG2 transfected with STAT-responsive luciferase reporter only, no TPO receptor
Description: (§1) International Application No. PCT/US99/30371, published as WO 00/35446 on Jun. 22, 2000, discloses that the TPO receptor can be activated by small molecule ligands of Formula (I).
(§2) In determining the efficacy and potency of the presently invented compounds as agonists of dimeric cell-surface receptors, a luciferase reporter gene assay configured in HepG2 cells was utilized (see Tian et al., Science 1998, 281, 257-259).
HepG2 cells were plated in 24-well plates in triplicates for overnight. The cells were then transfected with the indicated receptor construct, a GAS response element containing luciferase reporter, 8×118-TkLUC and STAT5b expression vector (a gift of Dr. James Ihle, Memphis, Tenn.) by Superfect method (QIAGEN, Valencia, Calif.) as instructed by the manufacturer. After an overnight recovery, the transfected cells were treated with 0.1% DMSO, TPO or compound of Example 4 at the indicated concentrations for 4-5 hrs. The cells were then lysed and the level of luciferase expression was measured by a plate reader.

human TPO receptor H499L = target: T1, human TPO receptor H499L (Homo sapiens, UniProt P40238, H499L); experiment: luciferase reporter in HepG2 cells, H499L point mutant of human TPO receptor; assay type: cell-based; settings: H499L point mutation in the human TPO receptor
T1 construct: expressed in transfected cells; host or cells: HepG2
T1 sequence (P40238 26-635 H499L): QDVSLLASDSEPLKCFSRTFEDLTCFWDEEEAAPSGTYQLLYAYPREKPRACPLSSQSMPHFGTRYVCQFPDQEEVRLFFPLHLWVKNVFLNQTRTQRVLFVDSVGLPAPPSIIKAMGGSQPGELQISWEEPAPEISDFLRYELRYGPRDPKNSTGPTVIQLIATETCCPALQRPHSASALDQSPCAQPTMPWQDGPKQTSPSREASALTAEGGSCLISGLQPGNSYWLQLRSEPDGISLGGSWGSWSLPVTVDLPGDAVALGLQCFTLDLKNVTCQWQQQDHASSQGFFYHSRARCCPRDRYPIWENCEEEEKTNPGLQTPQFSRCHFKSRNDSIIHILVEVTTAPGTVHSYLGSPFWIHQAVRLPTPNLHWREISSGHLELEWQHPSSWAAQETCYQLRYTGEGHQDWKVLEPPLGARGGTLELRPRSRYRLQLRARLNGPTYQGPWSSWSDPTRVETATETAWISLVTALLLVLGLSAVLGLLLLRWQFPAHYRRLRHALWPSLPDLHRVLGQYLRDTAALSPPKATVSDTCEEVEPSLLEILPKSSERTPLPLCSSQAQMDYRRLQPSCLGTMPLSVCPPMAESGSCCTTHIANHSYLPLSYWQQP
Source text: (§3) To further investigate the activity of compounds of Formula (I), cDNA clones for cynomolgous monkey TPO receptor were isolated and sequenced. […] It was clear from these experiments that the compounds of Formula I show strict specificity for the human TPO receptor, a finding also confirmed by STAT activation assays of platelets from human and cyno origin. In order to examine the region of the TPO receptor required for compound activity, a series of human/cyno TPO-R chimeric receptors were transfected into HepG2 cells and tested for their response to compounds of Formula (I). […] To investigate the role of this specific transmembrane domain mutation on the activity of compounds of Formula (I), two point mutations were constructed: a) a H499L change into the human TPO receptor transmembrane domain, creating a receptor with human extracellular and cytoplasmic domains and a cyno receptor transmembrane domain and b) a L499H change into the cyno receptor transmembrane domain creating a chimera with cyno extracellular and cytoplasmic domains and a human transmembrane domain. […] Conversely, the L499H mutation in the cyno TPO receptor allowed it to be activated by both TPO and the compounds with potencies and efficacies similar to those seen on wild type human receptor. […]

human TPO receptor = target: T2, human TPO receptor (Homo sapiens, UniProt P40238); experiment: luciferase reporter in HepG2 cells cotransfected with human TPO receptor; assay type: cell-based; settings: HepG2 cotransfected with human TPO receptor expression vector and reporter
T2 construct: expressed in transfected cells; host or cells: HepG2
T2 sequence (P40238 26-635): T1 sequence (P40238 26-635 H499L) with L474H
Source text: as §1, §2
Human Tpo receptor (hMPL) was cloned from HEL 92.1.7 cells (ATCC, Rockville, Md.) by PCR (forward primer: 5′-ACGAAGCTTAGCCAAGATGTCTCCTTGCTGGCAT-3′ and reverse primer: 5′-AGCCTCGAGTCAAGGCTGCTGCCAATAGCT-3′). The cloned full-length cDNA was confirmed by DNA sequencing analysis, then subcloned into HindIII-XhoI digested pSSF vector. The cynomolgous Tpo-R (cMPL) was cloned from bone marrow cDNA using the human 5′ and 3′ terminal coding sequences. The full-length cDNA was sequenced and subcloned into EcoRI digested pCDNA3. 1 (+) vector (Invitrogen, San Diego, Calif.). […]
HepG2 cells were plated in 24-well plates in triplicates for overnight. […] The cells were then lysed and the level of luciferase expression was measured by a plate reader.

cyno TPO receptor L499H = experiment: luciferase reporter in HepG2 cells, L499H point mutant of cyno TPO receptor; assay type: cell-based, cynomolgous monkey; settings: L499H mutation in the cyno TPO receptor
Source text: as §3

- receptor response (human TPO receptor H499L): little effect on the response
- response, luciferase expression (human TPO receptor): large increase in luciferase expression
Substance: TPO: thrombopoietin, natural protein ligand of the TPO receptor
- response, luciferase expression (HepG2): do not respond
- receptor activation (cyno TPO receptor L499H): activated

— patent publication US20040053299A1, “Regulated activation of cell-membrane receptors by metal-chelating agonists” (priority 2003, published 2004)
